According to paper PMC11530130, “Peripherally restricted PICK1 inhibitor mPD5 ameliorates pain behaviors in murine inflammatory and neuropathic pain models” (JCI Insight, 2024):

Tests used:
[1] = test system: mice, spared nerve injury (SNI) model; format: in vivo, mouse; details: mouse, in vivo, sc
Protocol: solution (0.05 mg/kg) injected s.c. 30 min before surgery (10 μL/g). For surgery, mice were anaesthetised with ketamine (100 mg/kg, i.p.) and xylazine (10 mg/kg, i.p.) (volume 10 µL/g) with 100 μL of 1% xylocaine solution infiltrated at the site of the incision. The distal trifurcation of the sciatic nerve was identified, and the tibial and common peroneal branches were ligated with polypropylene nonabsorbable 6-0 sutures (Ethicon) and 1 mm was cut out, leaving the sural branch intact. The wound was closed with sutures, and the animals were allowed to recover and returned to their cages. Two subcutaneous injections of buprenorphine (0.05 mg/kg) were performed with an 8 to 12 hours delay decreasing pain due to the surgery […]
The remaining SNI pain experiments were performed in-house using the following procedure.
SNI surgery was performed on the left hindleg of C57BL/6J male and female mice (Janvier, France) under 2% isoflurane anaesthesia. Skin on the lateral surface was incised between hip and knee followed by lengthwise division of the biceps femoris muscle leading to exposure of the three branches of the sciatic nerve. Sural branch was left intact, while the peroneal and tibial branches were ligated with a single surgical knot and axotomized distally of the ligation.
Wounds were closed with surgical glue or medical clips and animals were monitored daily for signs of stress or discomfort, but in all cases recovered uneventfully. […]
(§1) The skin wound was closed with two medical clips (Michel Suture Clips, 7.5x1.75 mm, Angthos, 12040-01). Post-surgical analgesia included s.c. injection of 5 mg/kg carprofen (Carprosan vet, 50 mg/mL mixed 1:25 in sterile ddH2O, Dechra, Le Vet Beheer B.V., Netherlands, Batch: 050520) right after surgery and the […]
(§2) following day. […]
(§3) The test battery of the CIBP model was carried out 45 or 90 min after morphine and mPD5 administration respectively to accommodate the peak efficacy […]
(§4) Mechanically evoked pain (von Frey test).
(§5) Unless otherwise specified, von Frey occurred as described in the following. Animals were habituated to the experimental room for a minimum of 60 min before initiation of the experiment. Mechanical paw withdrawal threshold (PWT) was determined by von Frey measurements of both hind paws. Von Frey filaments ranging from 0.04 to 2 g (g = gram- […]
(§6) Filaments in ascending order were applied to the frontocentral plantar surface of the hind paws.
(§7) Mice were placed in PVC plastic boxes (11.5 cm x 14 cm) on a wire mesh and allowed minimum 20 min habituation prior of experiment initiation. Each von Frey hair was applied five times with adequate resting periods between each application and number of withdrawals recorded. The withdrawal threshold was determined as the von Frey filament eliciting at least three positive trials out of the five applications in two consecutive filaments. A positive trial was defined as sudden paw withdrawal, flinching and/or paw licking induced by the filament.
(§8) For the CIBP model, two habituation sessions were performed on separated days with mice placed in the von Frey equipment for 1-1.5 hours in the presence of the experimenter on day one and random von Frey pocking with the 0.6 g filament on day two. Von Frey monofilaments (North Coast Touch Test, North Coast Medical, Inc.) with target forces of 0.04g, 0.07g, 0.16g, […]
(§9) down method” (PWT=10Xf+kδ) starting with the 0.6 g filament. Positive response was defined as; withdrawal, shaking or grooming of paw following a 2-3 second stimulation. In case, of unclear response, stimulus was repeated after 10-15 seconds.
(§10) For the STZ model, the mechanical threshold response of the injected mice was measured with […]
(§11) injection of test compounds on day 14, mechanical threshold was measured at 1 hour, 2 hours, 4 hours and 6 hours and again on day 15. […]
(§12) Thermally evoked pain (Hargreaves test).
A baseline Hargreaves test was performed on day 0 before inflammatory pain was induced as described in section 2.13. In the Hargreaves test, the mouse was placed in a container on a glass […]

[2] = test system: mice, streptozocin (STZ) model of type 1 diabetes; test: STZ model of diabetic neuropathy, von Frey; format: in vivo, mouse; details: male mice, positive control, dose not given
Protocol: Induction of Diabetic neuropathy (STZ model).
Diabetes was induced by a single i.p. injection of […] streptozocin (STZ) solution (100 μL/10 g, Sigma-Aldrich S0130, batch #WXBB7152V) in male seven-week-old C57BL/6J (Charles River) mice. Glycemia was tested before, and seven days after injection. All injected mice had blood glucose concentration >350 mg/dL from day seven and were used for analgesic testing of the compounds from day 14. One mouse had to be euthanized at seven days post injection. This experiment was performed by Phenotype Expertise, Marseilles, France - Pain and CNS behaviour CRO under supervision of Stéphane Gaillard, PhD (CEO). […]
as §1, §2, §3, §4, §5, §6, §7, §8, §9, §10, §11, §12
A baseline Hargreaves test was performed on day 0 before inflammatory pain was induced as described in section 2.13. In the Hargreaves test, the mouse was placed in a container on a glass table and left to habituate for at least 15 min. Using the Hargreaves apparatus, a heat beam from beneath was directed towards the hind paws of the mouse, and the paw withdrawal time

Row | SMILES | itching in the mice [1] | duration of significant pain relief [2]
1 | CCCCCCCCCCCCCCCCCCCC(=O)N(CCOCCOCCC(=O)N[C@@H](Cc1c[nH]cn1)C(=O)N[C@@H](Cc1c[nH]c2ccccc12)C(=O)N[C@@H](CC(C)C)C(=O)N[C@@H](CCCCN)C(=O)N[C@H](C(=O)O)C(C)C)CCOCCOCCC(=O)N[C@@H](Cc1c[nH]cn1)C(=O)N[C@@H](Cc1c[nH]c2ccccc12)C(=O)N[C@@H](CC(C)C)C(=O)N[C@@H](CCCCN)C(=O)N[C@H](C(=O)O)C(C)C [aPD5, arachidoyl-NPEG4-(HWLKV)2] | profound itching | –
2 | CC(C)C[C@H](CN)CC(=O)O [pregabalin, reference compound] | – | up to 4 hours
3 | CCCCCCCCCCCCCCCCCC(=O)N(CCOCCOCCC(=O)N[C@@H](Cc1c[nH]cn1)C(=O)N[C@@H](Cc1c[nH]c2ccccc12)C(=O)N[C@@H](CC(C)C)C(=O)N[C@@H](CCCCN)C(=O)N[C@H](C(=O)O)C(C)C)CCOCCOCCC(=O)N[C@@H](Cc1c[nH]cn1)C(=O)N[C@@H](Cc1c[nH]c2ccccc12)C(=O)N[C@@H](CC(C)C)C(=O)N[C@@H](CCCCN)C(=O)N[C@H](C(=O)O)C(C)C [sPD5, stearoyl-NPEG4-(HWLKV)2] | profound itching | –
